From PMC8056384 (ACS Chemical Biology, 2021)
“And” between values parts separate entries of the source, which are not always exact repeats. Identical values can stand only once.

What was measured:
hGALK1 [1] = biological target: T1, hGALK1 (Homo sapiens, UniProt P51570, E253A/K252A); test: Kinase-Glo luminescent hGALK1 activity assay; type: biochemical; set-up: Vmaxapp, substrate galactose, with ligand (+) / Kmapp, substrate galactose, with ligand (+): unit not given here; details: for change in hGALK1 activity, strictly standardized mean difference (SSMD): 5 mM fragment; for Kmapp, substrate galactose, with ligand (+) / Vmaxapp, substrate galactose, with ligand (+): 35 µM ATP, maximum tested concentration: 1 mM T1, 15 mM fragment 3, 2 mM 11–13; for mode of inhibition with respect to galactose: 0–250 μM galactose, best-fit model in GraphPad Prism
T1 construct: A hGALK1 construct, encoding full-length protein harboring the surface entropy[41] mutations K252A:E253A; His6 (N); made in house; host or cells: E. coli BL21(DE3)
T1 sequence (P51570 whole entry K252A/E253A, the tested form may be a part): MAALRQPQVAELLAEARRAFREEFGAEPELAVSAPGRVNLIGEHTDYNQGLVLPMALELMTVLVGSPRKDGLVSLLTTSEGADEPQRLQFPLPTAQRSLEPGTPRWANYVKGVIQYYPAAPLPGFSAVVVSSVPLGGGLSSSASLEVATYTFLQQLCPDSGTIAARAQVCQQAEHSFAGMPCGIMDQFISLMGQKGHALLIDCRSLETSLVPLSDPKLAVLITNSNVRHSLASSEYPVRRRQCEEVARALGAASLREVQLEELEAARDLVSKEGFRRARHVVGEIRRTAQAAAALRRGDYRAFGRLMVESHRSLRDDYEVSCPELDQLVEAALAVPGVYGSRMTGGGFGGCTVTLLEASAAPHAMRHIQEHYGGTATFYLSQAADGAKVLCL
Procedure: hGALK1 activity in vitro was determined using the Kinase-Glo luminescent kinase assay (Promega), according to the manufacturer’s protocol. […] Following a 1-h RT incubation, 10 μL of Kinase-Glo Plus detection reagent was added (final assay volume: 20 μL/well), and after a further 20 minutes RT incubation, luminescence was detected using a Pherastar FSX plate reader (BMG Labtech) containing a luminescence optics module. […] All reactions were performed in technical triplicates for two different preparations of hGALK1.
Data were plotted using GraphPad Prism software; curve fitting was performed with a nonlinear least-squares regression fit to the mixed, competitive, noncompetitive, and uncompetitive inhibition models from the GraphPad Prism enzyme kinetics–inhibition equations and the best fit selected by comparison of Akaike’s Information Criterion (AICc) probability scores and extra sum-of-squares F test P values calculated by the software.

hGALK1 [2] = biological target: T1, hGALK1; test: Amplex Red fluorescence-based hGALK1 activity assay (coupled with galactose oxidase); type: biochemical; set-up: Vmaxapp, substrate ATP, with ligand (+) / Kmapp, substrate ATP, with ligand (+): unit not given here; details: for Kmapp, substrate ATP, with ligand (+) / Vmaxapp, substrate ATP, with ligand (+): 50 µM galactose, maximum tested concentration: 1 mM T1, 15 mM fragment 3, 2 mM 11–13; for mode of inhibition with respect to ATP: 50 μM galactose, 0–250 μM ATP, best-fit model in GraphPad Prism
Description: Consequently, to confirm the mode of inhibition of the spiro-benzoxazole inhibitors with respect to ATP, we adopted the Amplex Red fluorescence-based assay[33],[34] by coupling the hGALK1 reaction with D. dendroides galactose oxidase (GAO; EC 1.1.3.9) to measure the level of galactose remaining after being depleted as a substrate for hGALK1. In this method, hydrogen peroxide generated by the oxidation of galactose by GAO is used by horseradish peroxidase to convert the nonfluorescent substrate Amplex Red into its highly fluorescent product resorufin; therefore, the resultant fluorescent signal is inversely proportional to hGALK1 enzyme activity. We optimized several parameters of this assay to allow measurement of hGALK1 activity for the first time (Figure S3; Supplementary Results).
The Amplex Red assay reagent contained horseradish peroxidase (EC 1.11.1.7, 0.2 U/mL), its substrate Amplex Red (10-acetyl-3,7-dihydroxyphenoxazine, 100 μM), and galactose oxidase (EC 1.1.3.9, 4 U/mL). The assay buffer used was the same as in the Kinase-Glo assay. […] Amplex Red reagent was added at a 1:1 volume to the hGALK1 reaction after 1-h incubation at RT. Fluorescence emission was measured at 585 nm, with excitation at 570 nm, after a further incubation period of 40 minutes, using a Pherastar FSX plate reader with a FI 540 590 optics module. Reactions were performed in technical triplicates for two biological replicates, and data were plotted and fitted as described for the Kinase-Glo assay except that the reaction rate, defined as total galactose consumed over the 1-h hGALK1 reaction, was determined using the following equation, where Fluorreaction = mean value of measured fluorescence of each reaction and Fluor50 = measured fluorescence with no galactose (i.e., fluorescence of 50 μM galactose): [drawing 2]

hGALK2 = biological target: T2, hGALK2 (Homo sapiens, UniProt Q01415); test: Kinase-Glo hGALK2 activity assay; type: biochemical; details: 1 mM compound
T2 construct: Constructs encoding full-length hGALK2 (Met1-Ala458) and hMVK (Met1-Leu396); His6-Strep-Strep tag followed by TEV protease cleavage site (N); made in house; host or cells: E. coli BL21(DE3)
T2 sequence (Q01415 1-458): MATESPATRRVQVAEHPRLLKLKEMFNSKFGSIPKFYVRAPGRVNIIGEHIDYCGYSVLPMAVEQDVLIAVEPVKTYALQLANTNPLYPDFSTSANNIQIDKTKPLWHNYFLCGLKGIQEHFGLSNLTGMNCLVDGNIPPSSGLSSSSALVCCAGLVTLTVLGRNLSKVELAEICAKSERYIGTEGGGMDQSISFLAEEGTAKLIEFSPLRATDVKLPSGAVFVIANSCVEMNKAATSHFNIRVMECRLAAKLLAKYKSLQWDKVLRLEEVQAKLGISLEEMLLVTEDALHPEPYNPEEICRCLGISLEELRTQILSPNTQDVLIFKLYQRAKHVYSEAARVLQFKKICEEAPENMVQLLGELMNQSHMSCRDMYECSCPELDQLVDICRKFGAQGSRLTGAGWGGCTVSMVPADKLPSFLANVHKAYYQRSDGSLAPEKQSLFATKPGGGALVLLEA
Procedure: (§1) hGALK1 activity in vitro was determined using the Kinase-Glo luminescent kinase assay (Promega), according to the manufacturer’s protocol. […] Similarly, hGALK2 activity and inhibition was measured with reactions containing 50 nM hGALK2, 100 μM N-acetylgalactosamine, and 35 μM ATP in the above-described buffer and hMVK activity and inhibition was measured with reactions containing 250 nM hMVK, 100 μM mevalonate, and 35 μM ATP in the above-described buffer. Following a 1-h RT incubation, 10 μL of Kinase-Glo Plus detection reagent was added (final assay volume: 20 μL/well), and after a further 20 minutes RT incubation, luminescence was detected using a Pherastar FSX plate reader (BMG Labtech) containing a luminescence optics module. To determine the inhibition mode with respect to galactose, 10 nM hGALK1 and 35 μM ATP in an assay buffer was added to an array of six fragment (0–15 mM) or 12 compound (0–2 mM) concentrations against six galactose concentrations (0–250 μM), with a final reaction volume of 10 μL/well dispensed into 384-well assay plates (Greiner), and measured as described above. All reactions were performed in technical triplicates for two different preparations of hGALK1. Reaction rate, defined as total ATP consumed over the 1-h hGALK1 reaction, was determined using the following equation, where Lumreaction = mean value of measured luminescence of each reaction and Lum35 = measured luminescence with no galactose (i.e., luminescence of 35 μM ATP): [drawing 1]

hGALK1 [3] = biological target: T1, hGALK1; test: Surface plasmon resonance (SPR) binding assay; details: hGALK1 immobilized on CM5 chip, analyte 0.195–200 μM, n = 1
Procedure: Purified hGALK1 (30 μg/mL), diluted in acetate buffer at pH 5, was attached via covalent coupling to a density of 13000 RU on a CM5 chip. The assay buffer was 50 mM sodium phosphate, pH 7.5, 200 mM NaCl, 0.5 mM TCEP, 5% DMSO, and 0.05% TWEEN20. A serial dilution (11 concentrations) was prepared in the above buffer for each analyte (3, 11–13) by 1:1 dilution from 200 μM to 0.195 μM, and the subsequent solutions were passed over the chip at a flow rate of 30 μL/min. Data are from an n = 1 experiment.

hMVK = biological target: T3, hMVK (Homo sapiens, UniProt Q03426); test: Kinase-Glo hMVK activity assay; type: biochemical; details: 1 mM compound
T3 construct: Constructs encoding full-length hGALK2 (Met1-Ala458) and hMVK (Met1-Leu396); His6-Strep-Strep tag followed by TEV protease cleavage site (N); made in house; host or cells: E. coli BL21(DE3)
T3 sequence (Q03426 whole entry): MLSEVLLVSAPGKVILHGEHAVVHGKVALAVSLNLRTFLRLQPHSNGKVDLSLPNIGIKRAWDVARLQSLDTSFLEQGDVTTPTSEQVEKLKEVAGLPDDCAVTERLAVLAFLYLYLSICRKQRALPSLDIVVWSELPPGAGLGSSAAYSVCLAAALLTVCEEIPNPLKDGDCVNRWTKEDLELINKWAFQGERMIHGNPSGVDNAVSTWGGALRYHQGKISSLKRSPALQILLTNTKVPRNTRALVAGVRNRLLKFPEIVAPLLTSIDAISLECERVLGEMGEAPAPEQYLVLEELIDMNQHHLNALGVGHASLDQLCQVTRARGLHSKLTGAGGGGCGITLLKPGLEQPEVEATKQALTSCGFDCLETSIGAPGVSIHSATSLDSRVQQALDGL
Procedure: as §1

[4] = calculated cumulatively over N1 and N2

Structure (SMILES)	change in hGALK1 activity, strictly standardized mean difference (SSMD) (hGALK1 [1])	Kmapp, substrate ATP, with ligand (+) (hGALK1 [2])	Vmaxapp, substrate ATP, with ligand (+) (hGALK1 [2])	Kmapp, substrate galactose, with ligand (+) (hGALK1 [1])	Vmaxapp, substrate galactose, with ligand (+) (hGALK1 [1])	mode of inhibition with respect to ATP (hGALK1 [2])	mode of inhibition with respect to galactose (hGALK1 [1]; 35 μM ATP)	also measured
CS(=O)(=O)c1nccn1Cc1cscn1 [fragment 2]	< 0.5							
O=C(OCc1ccc(Cl)cc1)c1cccnc1 [fragment 4]	< 0.5							
COCCNC(=O)CNc1cnc2cc(Cl)c(Cl)cc2n1 [compound 12]		40.4 ± 4.7	11.8 ± 0.2	41.5 ± 12.4	9.4 ± 1.1	noncompetitive	noncompetitive	inhibition at 1000 µM (hGALK2): < 10%; Kd (hGALK1 [3]): ~100 µM and 97 µM; inhibition at 2000 µM (hGALK1 [2]; 2 mM compound): > 50%; IC50 (hGALK1 [2]; biological replicate N1, read-out: Amplex Red N1 IC50): 45 µM; IC50 (hGALK1 [2]; biological replicate N2, read-out: Amplex Red N2 IC50): 25 µM; Amplex Red LLEAT (hGALK1 [2]; [4]): 0.27 kcal/mol; inhibition at 1000 µM (hMVK): < 10%; inhibition at 2000 µM (hGALK1 [1]; 2 mM compound): > 50%; IC50 (hGALK1 [1]; biological replicate N1, read-out: Kinase-Glo N1 IC50): 198 µM; IC50 (hGALK1 [1]; biological replicate N2, read-out: Kinase-Glo N2 IC50): 96 µM; Kinase-Glo LLEAT (hGALK1 [1]; [4]): 0.23 kcal/mol; LLEAT (Astex ligand lipophilicity efficiency score), range (hGALK1 [1]; range over Kinase-Glo and Amplex Red assays): 0.23 to 0.27 kcal/mol; IC50 (hGALK1 [1]; range over Kinase-Glo and Amplex Red assays, two biological replicates, read-out: IC50 values, range): 25 to 198 µM
O=C(NCCN1CCCC1=O)Nc1ccccc1 [fragment 5]	< 0.5							

More lines, main results first:

change in hGALK1 activity, strictly standardized mean difference (SSMD) (hGALK1 [1])	Kmapp, substrate ATP, with ligand (+) (hGALK1 [2])	Vmaxapp, substrate ATP, with ligand (+) (hGALK1 [2])	Kmapp, substrate galactose, with ligand (+) (hGALK1 [1])	Vmaxapp, substrate galactose, with ligand (+) (hGALK1 [1])	mode of inhibition with respect to ATP (hGALK1 [2])	mode of inhibition with respect to galactose (hGALK1 [1]; 35 μM ATP)	Structure (SMILES)	also measured
	63.5 ± 2.6	27.9 ± 1.5	32.9 ± 1.0	4.1 ± 0.5			O=C1CCCC2=C1C1(CCCC1)N=C(Nc1nc3ccccc3o1)N2 [T1, 2′-(benzo[d]oxazol-2-ylamino)-7′,8′-dihydro-1′H-spiro[cyclopentane-1,4′-quinazolin]-5′(6′H)-one, reference compound]	
					competitive	non-competitive	O=C1CCCC2=C1C1(CCCCC1)N=C(Nc1nc3ccccc3o1)N2 [T2, 2′-(benzo[d]oxazol-2-ylamino)-7′,8′-dihydro-1′H-spiro[cyclohexane-1,4′-quinazolin]-5′(6′H)-one, reference compound]	IC50 (hGALK1 [1]; 10 nM hGALK1, 100 μM galactose, 35 μM ATP, read-out: IC50): 17 µM
